Assay [1] has as its target T1, 5-HT1A receptors (Rattus norvegicus, UniProt P19327).
T1 sequence (P19327 1-422): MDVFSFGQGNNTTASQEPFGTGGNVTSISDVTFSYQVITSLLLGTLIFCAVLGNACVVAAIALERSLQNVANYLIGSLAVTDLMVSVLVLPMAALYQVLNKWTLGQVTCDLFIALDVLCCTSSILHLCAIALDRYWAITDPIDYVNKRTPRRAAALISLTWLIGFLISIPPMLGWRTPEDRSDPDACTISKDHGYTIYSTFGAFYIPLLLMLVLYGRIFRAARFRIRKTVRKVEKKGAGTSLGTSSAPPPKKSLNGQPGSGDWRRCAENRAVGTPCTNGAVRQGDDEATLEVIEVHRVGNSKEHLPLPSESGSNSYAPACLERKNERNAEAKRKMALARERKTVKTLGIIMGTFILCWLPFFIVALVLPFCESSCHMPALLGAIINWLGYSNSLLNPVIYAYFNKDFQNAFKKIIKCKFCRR
Briefly: Radioligand binding, displacement of [3H]-8-OH-DPAT in rat hippocampus. Background: Displacement assays read how much labelled ligand stays bound in the presence of the test substance.

For assay [2], the target named is 5-HT2A receptors (Rattus norvegicus, UniProt P14842). The assay is described as follows: Radioligand binding, displacement of [3H]-ketanserin in rat cortex.
Chain of 5-HT2A receptors (P14842 whole entry): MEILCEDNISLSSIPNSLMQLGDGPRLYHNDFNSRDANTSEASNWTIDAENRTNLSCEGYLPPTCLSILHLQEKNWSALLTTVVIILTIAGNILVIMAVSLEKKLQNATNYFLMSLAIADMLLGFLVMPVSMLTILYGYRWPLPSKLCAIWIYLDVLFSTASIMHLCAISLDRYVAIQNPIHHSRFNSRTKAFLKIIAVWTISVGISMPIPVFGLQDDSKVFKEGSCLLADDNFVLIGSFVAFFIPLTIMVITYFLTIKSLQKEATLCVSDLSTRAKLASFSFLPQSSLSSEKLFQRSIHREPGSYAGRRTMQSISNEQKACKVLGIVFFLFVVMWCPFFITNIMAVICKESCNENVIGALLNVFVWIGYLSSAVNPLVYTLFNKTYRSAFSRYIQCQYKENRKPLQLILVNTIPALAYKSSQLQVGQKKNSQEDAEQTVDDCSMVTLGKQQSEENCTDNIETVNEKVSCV
The subject of assay [3] is 5-HT1A serotonin receptor sites. The conditions noted are these: background statement, no reference given; cited from earlier work.

Turning to `O=c1ccc(=O)n(-c2ccccc2)n1CCCCN1CCN(c2ccccc2)CC1` [Compound 9c, 2-[4-(4-phenyl-1-piperazinyl)butyl]-1-phenyl-1,2-dihydropyridazine-3,6-dione], the inhibitory constant (Ki) in assay [1] was found to be 0.019 ± 0.001 µM; in assay [2], 0.409 ± 0.017 µM.
Consider `O=c1c2ccccc2c(=O)n(-c2ccccc2)n1CCCCN1CCN(c2ccccc2)CC1` [Compound 8c, 3-[4-(4-phenyl-1-piperazinyl)butyl]-2-phenyl-2,3-dihydrophthalazine-1,4-dione], for which the Ki in assay [1] was 0.119 ± 0.008 µM; in assay [2] it was 0.309 ± 0.001 µM.
For the compound `O=C1CC2(CCCC2)CC(=O)N1CCCCN1CCN(c2ncccn2)CC1` [Buspirone, {4-[4-(2-pyrimidinyl)-1-piperazinyl]butyl}-8-azaspiro[4.5]decane-7,9-dione], the “binding to 5-HT1A serotonin receptor sites (in words)” value (shortened to “binding”) in assay [3] is “high affinity and selectivity”.
Consider `O=C1c2ccccc2S(=O)(=O)N1CCCCN1CCN(c2ncccn2)CC1` [Ipsapirone], for which the “binding” value in assay [3] was “high affinity and selectivity”.
As for `CC1(C)CC(=O)N(CCCCN2CCN(c3ncccn3)CC2)C(=O)C1` [Gepirone], the “binding” value in assay [3] is “high affinity and selectivity”.

Usually Ki stands for a measure of affinity in units of concentration, obtained from inhibition or displacement. A lower Ki goes with higher affinity.

Values taken from publication PMC6236407 (Molecules : A Journal of Synthetic Chemistry and Natural …, 2001).
